Holding throughout (assay): NCI anticancer screen, dose series, 48 h
In test [1] the test system is SN12C renal.
For test [2], the system named is SNB-19 CNS.
Test [3] deals with CCRF-CEM leukemia.
Test [4] relates to MOLT-4 leukemia.
The subject of test [5] is HCC-2998 colon.
For test [6], the system named is CAKI-1 renal.
Test [7] has as its system SR leukemia.
Test [8] relates to NCI-H23 lung.
Test [9] has as its system ACHN renal.
Test [10] has as its system BT-549 breast.
Test [11] concerns OVCAR-4 ovarian.

Among the data in PubChem BioAssay (NCI) are TGI values, retold here.

Molecules are shown by their SMILES.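 Five concentrations, 48 hours, 96-well plates. Definition used: TGI = concentration required for complete inhibition of growth.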 Where a SMILES comes first, the peptide text is derived from it. [ ]: non-standard residue; d: D form. The star is where a group is joined. X28 = COC1=CC(=O)N(C(=O)[C@@H](O*)C(C)C)[C@H]1Cc1ccccc1; NMeL = CN[C@@H](CC(C)C)C(=O)O; Hexanoyl = CCCCCC(=O)*

Regarding `Cc1cn2c(/C=C3/C(=O)Nc4ccccc43)c(-c3ccccc3)nc2s1`, the TGI in test [1] was > 100 µM; in [2], 55.4 µM; in test [3], > 100 µM; in test [4], > 100 µM; in test [5] it was > 100 µM; in [6], > 100 µM. In addition, the TGI in test [7], in test [8], in test [9] and in [10] was > 100 µM each time.
For the molecule `CCOC(=O)c1ccc(N=C/C=C(\Nc2ccc(C(=O)OCC)cc2)c2ccc3ccccc3c2)cc1`, the TGI in [11] was 80.3 µM; in [1], 58.6 µM; in test [2] it was > 100 µM; in [3] it was 46.5 µM; in [4] it was 16.1 µM; in [6], 83.8 µM. In addition, the TGI is 41.6 µM in test [7], 54 µM in [8], > 100 µM in test [9] and 42.4 µM in test [10].
For the molecule `CC(=O)c1nc2ccccc2n1CC(=O)c1ccc([N+](=O)[O-])cc1`, the TGI in [11] is > 100 µM; in test [1] it was > 100 µM; in test [2], 74.2 µM; in test [3] it was > 100 µM; in [4], 84.5 µM; in test [6], 53.7 µM. For the same molecule, the figures for the TGI in test [7], in [8] and in test [10] were > 100 µM, > 100 µM and 52.6 µM, respectively.
For the molecule `Cc1ccc(S(=O)(=O)OC2CN3CCC2CC3)cc1` (stereo unspecified), the TGI in test [11], in [1], in [2], in test [3], in [4] and in test [6] was > 100 µM in each case. For the same molecule, the TGI in test [7], in test [8], in test [9] and in [10] was > 100 µM in each case.
Take `CCc1nnc2sc(-c3ccc(-c4ccc(Cl)cc4Cl)o3)nn12`: the TGI in [11], in test [1], in test [2], in [3], in [4] and in test [6] was > 100 µM each time. For the same molecule, the TGI in test [7], in [8], in test [9] and in test [10] was > 100 µM each time.
For the molecule `Fc1ccc(C(=NCc2ccccc2)N2CCOCC2)cc1`, the TGI in [1], in [2], in test [3], in test [4], in test [6] and in test [7] was > 100 µM each time. The TGI in test [8], in test [9] and in test [10] was > 100 µM in each case.
Consider `COC(=O)c1nc2c(C)c(O)c(O)c([C@H](C)CCC=C(C)C)c2o1`, for which the TGI in test [11] was > 100 µM; in [2] it was > 100 µM; in [3] it was 29.6 µM; in test [4], > 100 µM; in [5], 96.2 µM; in test [6], 50.9 µM. Moreover, the TGI was 78.5 µM in test [7], 89.8 µM in [8], 53.8 µM in [9] and > 100 µM in [10].
For the molecule `CCCCCC(=O)N[C@H](C(=O)N[C@H](C(=O)N(C)[C@@H](CC(C)C)C(=O)N1CCC[C@H]1C(=O)N1CCC[C@H]1C(=O)O[C@H](C(=O)N1C(=O)C=C(OC)[C@@H]1Cc1ccccc1)C(C)C)C(C)C)C(C)C` (Hexanoyl-VV[NMeL]PP-X28), the TGI in [11] was > 100 µM; in test [1], > 100 µM; in test [2], > 42.1 µM; in [3] it was > 100 µM; in [4] it was > 100 µM; in test [5], > 100 µM. Also, the TGI in test [6], in [8], in test [9] and in test [10] was > 100 µM throughout.
For the molecule `CC(C)(C)NCC(O)COc1cccc2[nH]c(C#N)cc12` (stereo unspecified), the TGI in test [11], in [1], in test [2], in [4], in test [6] and in test [7] was > 100 µM each time. Further, the TGI in [8], in test [9] and in test [10] was > 100 µM throughout.
As for `C#CCNC(Cc1ccccc1)C(=O)O` (stereo unspecified), the TGI in test [11], in [2], in [3], in test [4], in [5] and in [6] was > 100 µM in each case. Also, the TGI in test [7], in test [8], in test [9] and in test [10] was > 100 µM throughout.
`Cc1[nH]n(C(=O)c2ccccc2O)c(=O)c1/C=C1\C(=O)C=Cc2ccccc21`: the TGI in test [1] is 13.6 µM; in test [2] it was 64.3 µM; in [3], > 36.4 µM; in test [4], > 100 µM; in test [5] it was > 71.7 µM; in test [6] it was 6.64 µM. Besides, the TGI in [7] was > 100 µM; in [8], 9.99 µM; in [9], 12.8 µM; in test [10], 73 µM.
`C=C1C(=O)OC2C(C)C3C=CC(=O)[C@@]3(C)C(OC(=O)/C(C)=C/C)C1[C@@H]2OC(C)=O` (stereo partly specified): the TGI in test [11] is 2.53 µM; in test [1], 1.24 µM; in [2], 4.13 µM; in test [3], > 28.7 µM; in test [5] it was 3.2 µM; in [6], 1.61 µM. The TGI worked out at 3.61 µM in test [7], 1.29 µM in test [8], 1.68 µM in [9] and 0.682 µM in test [10].
Regarding `CC(=O)NC1C(OCC(=O)NC(C)C(=O)NC(CCC(=O)NCCCCCNc2ccc([N+](=O)[O-])c3[nH]c4ccccc4c(=O)c23)C(N)=O)C(O)C(CO)OC1(C)OCc1ccccc1` (stereo unspecified), the TGI in test [11], in test [1], in test [2], in test [3], in test [4] and in [5] was > 50 µM in each case. In addition, the TGI in test [6], in [8], in test [9] and in [10] was > 50 µM throughout.
With `CC1(C)COC(c2cccc(C3=NC(C)(C)CO3)c2)=N1`, the TGI in test [11], in test [2], in test [4], in test [5], in test [6] and in test [7] was > 100 µM each time. Besides, the TGI in test [8], in test [9] and in test [10] was > 100 µM throughout.
